“Also recorded” adds a separate entry of the source. Counter-ions that a name gives are not always drawn.
Experiments:
Assay type in all cases: physicochemical
[1] = Thermostability of alternative salt forms of lanreotide and TBR-760 (UPLC); settings: for compound degraded: 4 weeks at 60° C. and ambient humidity; for thermostability in words: increasing temperature and humidity (25° C./60% RH, 40° C./75% RH, 60° C.) up to 4 weeks
Experimental: (§1) Each TBR-760 salt was further evaluated for thermolytic stability over time by setting up three different exposure conditions (25° C. at 60% relative humidity (RH); 40° C. at 75% RH; or 60° C. with open and closed container systems (open dish/closed dish). Approximately 50 mg of each salt form was weighed in a nitrogen-flushed glove box for use in the studies. All samples were stored at −20° C. in a good laboratory practice (GLP) freezer both before and after exposure to the indicated conditions.
(§2) The stability of each salt form was assessed by monitoring the post-exposure drug peak purity and by evaluating the post-exposure visual appearance of the salt. The samples were removed from the exposure conditions and allowed to equilibrate to ambient conditions for 15-20 mins. An appropriate amount of each sample was weighed for analysis and dissolved in diluent (deionized water containing 0.1% TFA) to obtain a stock concentration of 1 mg/mL. The stock solution was then diluted to 0.125 mg/mL in an HPLC vial using diluent and the samples were run on a Waters Acquity UPLC system using the parameters shown in Table 4.
We conducted thermostability studies of lanreotide acetate substantially as described in Example 6. These experiments confirmed that lanreotide acetate is […] when exposed to increasing temperature and humidity conditions over time (FIG. 45). […] (FIG. 45). This degree of thermal and humidity instability is disfavored for a pharmaceutical agent, particularly one intended for patient self-administration at home.
To determine whether a thermostable salt form of TBR-760 could be manufactured, a salt exchange was performed as described in Example 1 to generate bromide and chloride salts of TBR-760. Lanreotide bromide and lanreotide chloride salts were also generated and assessed for thermostability to evaluate the effect of the salt form on compound stability and to compare stability of lanreotide and TBR-760 of each salt.
UPLC assays performed as described in Example 6 were further used to determine the number of degradants—and thus the number of impurities—in each sample. Results showing the purity assessment of each sample following thermostability studies are shown in FIGS. 48A-48B (lanreotide and TBR-760 acetate salts), 49A-49B (lanreotide and TBR-760 bromide salts), and 50A-50B (lanreotide and TBR-760 chloride salts).

[2] = Photostability of alternative salt forms of lanreotide and TBR-760; settings: 1.2 million lux hours visible light or 200 watt hours/square meter UV light
Text: (§3) In order to evaluate the light sensitivity and stability of TBR-760 chimeric peptide salts, all five salt forms were exposed to ultraviolet (UV) and visible light according to International Council for Harmonisation of Technical Requirements for Pharmaceuticals for Human Use (ICH) guideline Q1B for photostability testing. In brief, a Caron 6540-1 photostability chamber unit with separate UV and light chambers was used for the studies. Visible light exposure was 1.2 million lux hours and UV exposure was 200 watt hours/square meter.
Photostability of lanreotide acetate, lanreotide bromide, lanreotide chloride, TBR-760 acetate, TBR-760 bromide and TBR760 chloride was tested according to the methods of Example 7. Four samples were prepared for each salt form: one control for each of the UV and visible light exposure conditions (controls isolated from light) and one sample for exposure to each of the UV and visible light conditions. For each sample, 2-5 mg of the salt was weighed into 3 mL clear serum vials and stoppered. Vials containing control samples were wrapped in aluminum foil.
Following exposure to visible and UV light, all lanreotide and TBR-760 salts were analyzed by UPLC as described in Example 7.

[3] = Thermogravimetric analysis (TGA) of TBR-760 salt forms; settings: ramp 5.0° C. per minute from 25 to 400° C.; listed as mesylate salt
Experimental: Thermogravimetric analyses (TGA) were performed on all TBR-760 salt forms to evaluate thermal stability of each salt form. Studies were performed using a TGA-Q500 thermogravimetric analyzer (TA Instruments). The weight of each compound was measured while the temperature was increased at a ramp rate of 5.0° C. per minute from 25 to 400° C. […] The weight loss may be indicative of loss of adsorbed moisture, entrained solvent or volatile impurities. Decomposition of the compound appears to start at about 234° C. (sulfate salt), 245° C. (chloride salt), 252° C. (tosylate salt), and 255° C. (mesylate salt). For the acetate salt, a further ˜5% loss of weight between 110° C. and 200° C. was observed, indicating loss of volatile acetate ions over that temperature range (FIG. 8).

[4] = Solid state (thermolytic) stability of TBR-760 salt forms, open container, UPLC peak purity and appearance
Experimental: as §1, §2

[5] = Photostability of TBR-760 salt forms (ICH Q1B, visible and UV light), appearance and UPLC purity
Text: as §3
Samples were placed in clear, sealed vials and stored in the appropriate chamber alongside dark controls in amber colored vials wrapped in aluminum foil. Control samples were stored in sealed amber vials at −20° C. The appearance of exposed samples was examined visually before being analyzed via UPLC.

[6] = listed as hydrobromide salt of TBR-760
[7] = 25° C. at 60% RH, open container
[8] = 40° C. at 75% RH, open container
[9] = UPLC peak purity, 25° C. at 60% RH, open container
[10] = UPLC peak purity, 40° C. at 75% RH, open container
[11] = UPLC peak purity, 60° C., open dish
[12] = listed as lanreotide hydrobromide

CCCN1C[C@H](CSCC(=O)NCCCC[C@@H](NC(=O)CSC[C@@H]2C[C@@H]3c4cccc5[nH]cc(c45)C[C@H]3N(CCC)C2)C(=O)N[C@H]2CSSC[C@@H](C(=O)N[C@H](C(N)=O)[C@@H](C)O)NC(=O)[C@H](CC)NC(=O)[C@H](CCCCN)NC(=O)[C@@H](Cc3c[nH]c4ccccc34)NC(=O)[C@H](Cc3ccc(O)cc3)NC2=O)C[C@@H]2c3cccc4[nH]cc(c34)C[C@H]21 [TBR-760 bromide, Dop2-D-Lys(Dop2)-cyclo[Cys-Tyr-D-Trp-Lys-Abu-Cys]-Thr-NH2]
compound degraded [1]: more than 23% | thermostability in words [1, 6]: significantly degraded | photostability in words (UPLC purity) [2]: greater loss of purity than TBR-760 acetate or TBR-760 chloride | visible appearance after exposure to visible and UV light ([2]; versus control): did not visibly change | photostability in words (UPLC purity) [2, 6]: significantly degraded

CCCN1C[C@H](CSCC(=O)NCCCC[C@@H](NC(=O)CSC[C@@H]2C[C@@H]3c4cccc5[nH]cc(c45)C[C@H]3N(CCC)C2)C(=O)N[C@H]2CSSC[C@@H](C(=O)N[C@H](C(N)=O)[C@@H](C)O)NC(=O)[C@H](CC)NC(=O)[C@H](CCCCN)NC(=O)[C@@H](Cc3c[nH]c4ccccc34)NC(=O)[C@H](Cc3ccc(O)cc3)NC2=O)C[C@@H]2c3cccc4[nH]cc(c34)C[C@H]21 [TBR-760 mesylate, Dop2-D-Lys(Dop2)-cyclo[Cys-Tyr-D-Trp-Lys-Abu-Cys]-Thr-NH2]
TGA start of decomposition [3]: ~255 °C | Appearance, T = 2 wk [4, 7]: White | Appearance, T = 4 wk [4, 7]: White | Appearance, T = 3 d [4, 7]: White | stability compared with the other salt forms ([4]; 40° C. at 75% RH and 60° C., 2 and 4 weeks): significantly more stable | Appearance, T = 2 wk [4, 8]: White | Appearance, T = 4 wk [4, 8]: White | Appearance, T = 3 d [4, 8]: White | Appearance, T = 2 wk ([4]; 60° C., open dish): White | Appearance, T = 4 wk ([4]; 60° C., open dish): White | Appearance, T = 3 d ([4]; 60° C., open dish): White | Purity, T = 2 wk [4, 9]: 98.14 | Purity, T = 4 wk [4, 9]: 97.77 | Purity, T = 2 wk [4, 10]: 97.49 | Purity, T = 4 wk [4, 10]: 97.35 | Purity, T = 2 wk [4, 11]: 97.56 | Purity, T = 4 wk [4, 11]: 97.17 | Purity, Control ([4]; UPLC peak purity, control, stored at -20° C.): 98.39 | Appearance, Control ([4]; control, stored at -20° C.): White | Purity, UV-exposed ([5]; UPLC, UV 200 watt hours/square meter, clear sealed vial): 96.67 | Purity, Control ([5]; UPLC, control in sealed amber vial at -20° C.): 98.39 | Purity, Dark Ctrl-UV ([5]; UPLC, dark control in UV chamber): 98.35 | Purity, Dark Crtl-Light ([5]; UPLC, dark control in visible light chamber): 98.46 | Purity, Light-exposed ([5]; UPLC, visible light 1.2 million lux hours, clear sealed vial): 95.3 | Appearance, UV-exposed ([5]; UV 200 watt hours/square meter, clear sealed vial, listed as Mesylate): off-white | Appearance, UV-exposed ([5]; UV 200 watt hours/square meter, clear sealed vial, listed as mesylate): white to off-white | Appearance, Control ([5]; control in sealed amber vial at -20° C.): white | Appearance, Dark Ctrl-UV ([5]; dark control in UV chamber, amber vial wrapped in aluminum foil): white | Appearance, Dark Crtl-Light ([5]; dark control in visible light chamber, amber vial wrapped in aluminum foil): white | degradation upon exposure to visible or UV light, in words ([5]; visible and UV light, UPLC): more resistant to degradation than TBR-760 acetate | Appearance, Light-exposed ([5]; visible light 1.2 million lux hours, clear sealed vial, listed as Mesylate): off-white | Appearance, Light-exposed ([5]; visible light 1.2 million lux hours, clear sealed vial, listed as mesylate): white to off-white

CC(C)[C@@H]1NC(=O)[C@H](CCCCN)NC(=O)[C@@H](Cc2c[nH]c3ccccc23)NC(=O)[C@H](Cc2ccc(O)cc2)NC(=O)[C@@H](NC(=O)[C@H](N)Cc2ccc3ccccc3c2)CSSC[C@@H](C(=O)N[C@H](C(N)=O)[C@@H](C)O)NC1=O [lanreotide acetate, lanreotide, reference compound]
thermostability in words [1]: thermostable; also recorded: stable | photostability in words (UPLC purity) [2]: stable to both visible and UV light

CC(C)[C@@H]1NC(=O)[C@H](CCCCN)NC(=O)[C@@H](Cc2c[nH]c3ccccc23)NC(=O)[C@H](Cc2ccc(O)cc2)NC(=O)[C@@H](NC(=O)[C@H](N)Cc2ccc3ccccc3c2)CSSC[C@@H](C(=O)N[C@H](C(N)=O)[C@@H](C)O)NC1=O [lanreotide bromide, lanreotide, reference compound]
compound degraded [1]: more than 7% | thermostability in words [1, 12]: moderately stable; also recorded: less stable than lanreotide acetate | photostability in words (UPLC purity) [2, 12]: moderately stable

— patent publication US20210338782A1, “STORAGE STABLE SOMATOSTATIN-DOPAMINE CHIMERIC COMPOUNDS AND SALT FORMS THEREOF” (Cydan II, Inc., priority 2019, published 2021)
